Test results published in PMC7617869, “Molecular glues that inhibit deubiquitylase activity and inflammatory signaling” (Nature Structural & Molecular Biology, 2025).
“And” between values parts separate entries of the source, which are not always exact repeats. Equal entries are not always repeated.

Assays:
[1] = system: IFN-stimulated response elements (ISRE) in THP-1 cells; assay: THP-1 ISRE luciferase reporter, IFNα2 stimulation; assay type: cell-based, human; settings: IFN + compound; replicate values
Experimental: THP-1 in vitro experiments
THP-1-DualTM cells (InvivoGen), derived from a human monocytic cell line, isolated from a patient with acute monocytic leukaemia, were cultured as per manufacturer’s guidance. Cells were seeded at 1x10^6 cells/mL in RPMI1640 media containing 10% fetal bovine serum (FBS), 1% penicillin-streptomycin (PS) (Gibco Laboratories) with DMSO (0.1%) (control) or in media containing JMS-175- […]
ng/mL) (Merck Life Science), ODN 2216 (1 µM) (Miltenyi Biotec), or Poly:IC (1 µg/mL) (InvivoGen).
Tofacitinib (Cambridge Biosciences) at 0.4 µM was used for comparison against a known JAK inhibitor.
Cells were centrifuged at 300 g for 5 minutes. Supernatant was removed and subjected to simultaneous study of the NF -κB pathway, by monitoring the activity of secreted alkaline phosphatase reporter (SEAP), and the IRF pathway, by assessing the activity o f a secreted Lucia luciferase using QUANTI - Blue ™ Solution and QUANTI -Luc™ 4 Lucia/Gaussia (InvivoGen), respectively, as per manufacturer’s instructions. Pelleted cells were used for FACS analysis using IFNα/β R1 APC-conjugated antibody or isotype control (Biotechne, FAB245A and IC002A), or unstained staining procedure with and without Zombie GreenTM (Biolegend). Samples were analysed using CytoFlex LX (Beckman) (50,000 live cells per condition). Median fluorescence intensity for APC channel gated on single cell live cells was analysed and compared as a percentage to control (no stimulation condition). […]

[2] = system: IFNAR1 cell surface levels in MCF10A BRCC45 WT cells; assay: MCF10A BRCC45 WT IFNAR1 cell surface levels (FACS); assay type: cell-based, human; settings: for IFNAR1 cell surface levels (Fig. 5g): BRCC45 KO + BRCC45 WT, IFN + compound, No IFN about 100; for IFNAR1 cell surface levels: BRCC45 WT cells, IFN 50 ng/ml, 5 μM, 90 min
Experimental: To study the direct effect of BRISC DUB inhibitors, IFNAR1 surface levels were measured using flow cytometry (FACS) analysis. For this purpose, MCF10A WT and MCF10A BRCC45 KO cells expressing […]
BRCC45 WT or BRCC45 R137A were used. […]
minutes prior to the addition of 50 ng/mL of hIFN-Iα for various time points (45 minutes and 90 minutes).
After IFN treatment, cells were dissociated from plate using cell dissociation Buffer (ThermoFisher Scientific, #13150016) and were stained with LIVE/DEAD™ Fixable Violet Dead Cell Stain Kit, for 405 nm excitation (ThermoFisher Scientific, #L34963) for 30 minutes, as per the kit protocol. The cells were then washed using FACS buffer (DPBS, 1% BSA, 2 mM EDTA, 0.09% sodium azide) and transferred to 96-well round bottom plates. Resuspended cells were divided into three repeats for each sample, each was surface stained for 1 hour at 4 °C with: 1. Human IFN-alpha/beta R1 Antibody (R&D systems, #MAB245), 2. Mouse IgG1 Isotype Control (R&D systems, #MAB002), 3. FACS buffer (control cells).
Following incubation, cells were washed once with FACS buffer and were labelled for 30 minutes at 4 °C with either Biotin-SP-conjugated AffiniPure Donkey Anti-Mouse IgG (H+L) (Jackson Immunoresearch Laboratories) for samples 1 and 2 or with FACS buffer for sample 3. Cells were washed twice with FACS buffer and were labelled for 15 minutes at 4 °C with either R-Phycoerythrin-conjugated Streptavidin (Jackson Immunoresearch Laboratories) for samples 1 and 2 or with FACS buffer for sample 3. Cells were washed 3 times with FACS buffer and were analysed by FACS (MACSQuant, Miltenyi Biotec). For each sample from group 1 the Geo mean fluorescence intensity (MFI) of its isotype sample was reduced. IFNAR1 cell surface percentage was calculated by 100*(MFI

Row | SMILES | ISRE luciferase reporter signal (Fig. 5a) [1] | IFNAR1 cell surface levels (Fig. 5g) [2] | IFNAR1 cell surface levels [2]
1 | Cn1cc(NC(=O)c2c(Cl)cccc2Cl)c(C(=O)NC2CCN(C(=O)c3c(Cl)cccc3Cl)CC2)n1 [AP-5-145] | 5071.67 and 5115.33 and 6389 and 6090.67 | 55.2385 and 54.5047 and 53.242 | –
2 | O=C(NC1C2CNCC21)c1nn(C(=O)c2c(Cl)cccc2Cl)cc1NC(=O)c1c(Cl)cccc1Cl (centres unmarked) [FX-171-C] | 3973.33 and 4177.33 and 5441.67 and 5023.67 | 39.3476 and 40.435 and 39.71 | reduction in IFNAR1 cell surface levels
3 | O=C(NC1CCNCC1)c1nn(C(=O)c2c(Cl)cccc2Cl)cc1NC(=O)c1c(Cl)cccc1Cl [JMS-175-2] | 2914 and 3263.67 and 4737.67 and 4742.67 | 38.381 and 37.8977 and 40.435 | reduction in IFNAR1 cell surface levels
